One data set concerns ALS. To be noted: literature (Patten and Klein 1988); cited from earlier work.
Data set [1] deals with T1, glutamate dehydrogenase (GDH) (Homo sapiens, UniProt P00367).
T1 construct: GDH present in post mortem brain tissue; from tissue; host or cells: human post mortem brain: cerebellum (control and multisystem atrophy patient 1), frontal cortex (multisystem atrophy patient 2)
Kind of data set: In vitro leucine activation of membrane bound GDH in post mortem brain tissue. It counts as biochemical. Particulars: for activity at 250 µM: leucine 0.25 mM; for activity at 500 µM: leucine 0.50 mM; for activity at 1000 µM: leucine 1.0 mM; for activity at 5000 µM: leucine 5.0 mM; for activity at 10000 µM: leucine 10 mM. An excerpt: (Table 4) Tissue preparation and GDH determinations were done according to methods previously reported. [A. D. Colon, A. Plaitakis, S. Berl, and D. D. Clark. "The purification and characterization of soluble and particulate Glutamate Dehydrogenase in Rat Brain," Neurochemistry, 1986, 46:1811-1819. The contents of this publication are herein incorporated by reference] […] FIG. 4.

A further data set can be described thus: clinical. To be noted: human, in vivo. From the text: FIG. 4. Results of the branched-chain amino acid oral test dose. […] Blood samples were drawn at the times indicated and processed as previously described(5). Data points represent mean values from 9 patients ±SEM. * Denotes p<0.001 and p<005. Symbols refer comparisons to 0 time values according to the student's t-test.
(§1) Baseline blood chemistries and complete blood counts (CBC were obtained. To assure bioavailability of the BCAA, an oral test dose of the above-described mixture or placebo was given after overnight fasting at baseline. Blood samples were drawn at 0, 60 and 120 minutes after dosing for multi-chemistries, CBSs and serum ammonia and amino acid levels. In addition, a random blood sample was obtained for the above studies at three month intervals with no attention paid to time of oral dosing. Plasma amino acid levels were assayed as previously described. [A. Platakis and J. Caroscio, "Abnormal Glutamate Metabolism in Amyotrophic Lateral Sclerosis, " Ann Neurol, 1987, 22:575-579. The contents of this article are herein incorporated by reference]

A short description of data set [2]: Random blood samples during the one-year trial: plasma amino acid levels. It counts as in vivo, human. Particulars: amino acid-treated ALS patients. The method, then: as §1
For data set [3] the following is noted: in vivo; cited from earlier work.
The subject of data set [4] is glutamate dehydrogenase (GDH). To be noted: literature (Yielding and Tomkins 1961); cited from earlier work.
The mark [5] stands for this setting: Control Patient Cerebellum, read-out: Percent Baseline GDH Activity.
The mark [6] stands for this setting: Multisystem Atrophy Multineuron Disease Patient 1 Cerebellum, read-out: Percent Baseline GDH Activity.
Setting [7] is: Multisystem Atrophy Multineuron Disease Patient 2 Frontal Cortex, read-out: Percent Baseline GDH Activity.

The structures appear in SMILES notation. Entries after “also recorded” stand apart in the source; their conditions may differ. Read-outs that look alike come from different tables or passages of the source.

This is an account of results in patent publication US5028622A, “Administration of amino acids as treatment for neurodegenerative disorders” (Ajinomoto Company, Inc., priority 1989, dated 1991).

T1 sequence (P00367 54-558): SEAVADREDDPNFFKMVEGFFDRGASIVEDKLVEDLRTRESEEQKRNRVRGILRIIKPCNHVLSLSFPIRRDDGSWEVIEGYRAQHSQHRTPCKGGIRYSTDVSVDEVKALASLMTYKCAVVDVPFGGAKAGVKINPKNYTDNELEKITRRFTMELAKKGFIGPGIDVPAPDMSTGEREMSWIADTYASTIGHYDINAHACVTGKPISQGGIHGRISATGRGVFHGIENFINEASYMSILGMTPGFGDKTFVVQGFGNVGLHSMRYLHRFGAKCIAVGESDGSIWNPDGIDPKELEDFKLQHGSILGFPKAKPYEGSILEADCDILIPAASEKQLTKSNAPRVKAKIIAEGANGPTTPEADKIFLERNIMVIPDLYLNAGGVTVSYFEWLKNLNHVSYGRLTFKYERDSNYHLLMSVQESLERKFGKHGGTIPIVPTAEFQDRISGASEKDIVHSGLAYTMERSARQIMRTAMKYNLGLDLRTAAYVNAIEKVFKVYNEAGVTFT

On to `CC(C)C[C@H](N)C(=O)O` [L-leucine], for which the “status of ALS patients treated with it as placebo substituted for L-threonine” value in the data set on ALS is listed as “revert to previous status”. Further, in data set [1] (setting [5]), the activity at 250 µM is 117%, the activity at 500 µM was determined as 135%, the activity at 1000 µM worked out at 143% and the activity at 5000 µM was found to be 155%. The activity at 10000 µM in data set [1] (setting [5]) stood at 160%. The activity at 2500 µM in data set [1] (Control Patient Cerebellum, leucine 2.5 mM, read-out: Percent Baseline GDH Activity) was 155%. Besides, in data set [1] (setting [6]), the activity at 250 µM stood at 117%, the activity at 500 µM is 153%, the activity at 1000 µM was found to be 186% and the activity at 5000 µM was determined as 176%. In data set [1] (setting [6]), the activity at 10000 µM turned out to be 176%. In data set [1] (Multisystem Atrophy Multineuron Disease Patient 2 Frontal Cortex, leucine 0.15 mM, read-out: Percent Baseline GDH Activity), the activity at 150 µM came out at 122%. In data set [1] (setting [7]), the activity at 250 µM came out at 128% and the activity at 500 µM worked out at 141%. Moreover, in data set [1] (post mortem brain tissue, effect concentration dependent), the “lowest concentration effective in producing increases in GDH activity” value came out at 0.15 mM. Also, the “increase in plasma level following oral dosing” value in “clinical” (60 min) is reported as 300%. Besides, the “increase in plasma level following oral dosing” value in “clinical” (120 min) is given as 192%. Also, in the data set “clinical” (po), the concentration at 1 h is approximately 450 µM and the concentration at 2 h was approximately 300 µM. Also, the “plasma level higher than that of placebo-treated patients” value (from here on “plasma level higher than that”) in data set [2] was 112%. Besides, the “effect on plasma and CSF levels of the other two BCAAs” value in data set [3] is listed as “severely depress”. In data set [4], the “activation of glutamate dehydrogenase in vitro” value (from here on “activation”) was “allosterically activate; also recorded: can be activated”.

Turning to `CC[C@H](C)[C@H](N)C(=O)O` [L-isoleucine], the “status of ALS patients treated with it as placebo substituted for L-threonine” value in the data set on ALS was “revert to previous status”. For the same compound, the results for the “increase in plasma level following oral dosing” value in “clinical” (60 min) and in “clinical” (120 min) were 393% and 183%, respectively. Moreover, in data set [2], the “plasma level higher than that” value came out at 93%. Also, in data set [4], the “activation” value is “allosterically activate; also recorded: can be activated”.

Turning to `CC(C)[C@H](N)C(=O)O` [L-valine], the results for the “increase in plasma level following oral dosing” value in the data set “clinical” (60 min) and in “clinical” (120 min) were 95% and 53%, respectively. The “plasma level higher than that” value in data set [2] is recorded as 61%. In addition, in data set [4], the “activation” value is reported as “allosterically activate”.
